This is an account of results in patent US5770420A, “Methods and products for the synthesis of oligosaccharide structures on glycoproteins, glycolipids, or as free molecules, and for the isolation of cloned genetic sequences that determine these structures” (The Regents of the University of Michigan, priority 1995, dated 1998).

Read-outs that look alike come from different tables or passages of the source.

For assay [1], the system named is chimera Fuc-TC18: Fuc-TVI (1-85) plus Fuc-TIII (87-160) plus Fuc-TVI (160-359). As to conditions: acceptor 0.25-167 mM, 3 mM GDP-[14C]fucose (so in the source), pH 6.2, 37° C. On the procedure:
(§1) Extracts for α(1,3)Fuc-T assays were prepared by harvesting COS-7 cells 72 hours after transfection, and solubilizing the cell pellets in 1% Triton X-100 (Kukowska-Latallo, J. F., et al (1990) Genes Devel., vol. 4, 1288-1303; Lowe, J. B., et al (1991) J. Biol. Chem., vol. 266, 17467-17477; Weston, B. W., et al (1992) J. Biol. Chem., vol. 267, 4152-4160; Weston, B. W., et al (1992) J. Biol. Chem. vol. 267, 24575-24584). Cell extract protein contents were determined with a micro BCA protein assay reagent (Pierce). Fucosyltransferase assays were performed in a final volume of 20 μl, and contained 25 mM sodium cacodylate (pH 6.2), 5 mM ATP, 10 mM L-fucose, 20 mM MnCl2 and 3 mM GDP-[^14 C]fucose. Cell extract protein concentration was varied to approximate linear reaction rate conditions (net [14C]-fucose incorporation rate of a less than twenty percent of total input GDP-[^14 C]fucose radioactivity). […] Reactions were incubated at 37° C. for one hour and were terminated by the addition of 20 μl ethanol, followed by dilution with […] water. The total radioactivity in each reaction was determined by subjecting an aliquot to scintillation counting. To assess the amount of radioactive fucose incorporated into product, an additional aliquot was applied to a Dowex 1×2-400 column in the formate form (Sasaki, K., et al (1994) J. Biol. Chem., vol. 269, 14730-14737; Natsuka, S., et al (1994) J. Biol. Chem., vol. 269, 16789-16794; Macher, B. A., et al (1991) Glycobiology, vol. 1, 577-584; Natsuka, S., and Lowe, J. B. (1994) Curr. Opin. Struct. Biol., vol. 4, 683-691). The flow through fraction plus an additional 2 ml of a water column "wash" was collected, pooled and subjected to scintillation counting. Control assays containing no added acceptor substrate were also completed in parallel.

Assay [2] deals with chimera Fuc-TC19: Fuc-TIII (1-99) plus Fuc-TVI (99-159) plus Fuc-TIII (161-361). As to conditions: acceptor 0.25-167 mM, 3 mM GDP-[14C]fucose (so in the source), pH 6.2, 37° C. On the procedure:
as §1

The test system of assay [3] is chimera Fuc-TC20: Fuc-TVI (1-98) plus Fuc-TIII (100-160) plus Fuc-TVI (160-359). As to conditions: acceptor 0.25-167 mM, 3 mM GDP-[14C]fucose (so in the source), pH 6.2, 37° C. The method, then: as §1
The test system of assay [4] is chimera Fuc-TC2: Fuc-TIII (1-160) plus Fuc-TVI (160-359). As to conditions: acceptor 0.25-167 mM, 3 mM GDP-[14C]fucose (so in the source), pH 6.2, 37° C. The method, then:
as §1

For assay [5], the system named is chimera Fuc-TC4: Fuc-TVI (1-159) plus Fuc-TIII (161-361). As to conditions: acceptor 0.25-167 mM, 3 mM GDP-[14C]fucose (so in the source), pH 6.2, 37° C. On the procedure: as §1
For assay [6], the target named is human Fuc-TVI (α(1,3)fucosyltransferase), wild type, SEQ ID NO:14 (Homo sapiens, UniProt P51993). To be noted: read-out: Apparent Km LNB-I; acceptor 0.25-167 mM, 3 mM GDP-[14C]fucose (so in the source), pH 6.2, 37° C. The method, then: as §1
Assay [7] concerns the target IgG-Sepharose. Description: batch binding of conditioned medium to IgG-Sepharose, enzyme activity assayed.
Assay [8] concerns the target IgG-Sepharose. As to the kind of experiment: batch binding of conditioned medium to IgG-Sepharose, washed matrix assayed for enzyme activity.

For the compound `CC(=O)N[C@H]1C(O)O[C@H](CO)[C@@H](O)[C@@H]1O[C@@H]1O[C@H](CO)[C@H](O)[C@H](O)[C@H]1O` (stereo partly shown) [LNB-I, lacto-N-biose I], the Km in assay [1] (read-out: Apparent Km LNB-I), in assay [2] (read-out: Apparent Km LNB-I), in assay [3] (read-out: Apparent Km LNB-I), in assay [4] (read-out: Apparent Km LNB-I), in assay [5] (read-out: Apparent Km LNB-I) and in assay [6] was more than 50 mM in each case.
For the compound `CC(=O)N[C@H]1C(O)O[C@H](CO)[C@@H](O[C@@H]2O[C@H](CO)[C@H](O)[C@H](O)[C@H]2O)[C@@H]1O` (stereo partly shown) [LacNAc, N-acetyllactosamine], the Michaelis-Menten constant (Km) (usually the concentration of substrate that gives half-maximal velocity) is more than 50 mM in assay [1] (read-out: Apparent Km LacNAc); 1.1 mM in assay [2] (read-out: Apparent Km LacNAc); more than 50 mM in assay [3] (read-out: Apparent Km LacNAc); more than 50 mM in assay [4] (read-out: Apparent Km LacNAc); 5.8 mM in assay [5] (read-out: Apparent Km LacNAc).
With “protein A-Fuc-TIV fusion protein encoded by pPROTA-α(Fuc-TIV)c (from UniProt P02976) (enzyme)”, the percent of released activity retained in assay [7] amounted to 100%.
Still for that read-out and setting: under “protein A-Fuc-TV fusion protein encoded by pPROTA-Fuc-TVc (from UniProt P02976) (enzyme)” stands 100%.
As to “protein A-fucosyltransferase fusion protein encoded by pPROTA-α(1,3/1,4)FTc (from UniProt P02976) (enzyme)”, the percent of released activity retained in assay [7] amounted to 100%. Moreover, in assay [8], the percent of activity recovered from the matrix after exhaustive washing worked out at 24%.
With “protein A-α(1,2)fucosyltransferase fusion protein encoded by pPROTA-α(1,2)FTc (from UniProt P02976) (enzyme)”, the percent of released activity retained in assay [7] came to 100%.
